Experimental data: patent publication US9593122B2, “Substituted pyrazolylpyrazole derivative and use of same as herbicide” (KYOYU AGRI CO., LTD., priority 2013, dated 2017)

Legend:
Experiment in all cases: Paddy herbicidal activity test
Format in all cases: in vivo
Echinochloa crus-galli = conditions: irrigated paddy pot, treated at 3.5 leaf stage of Echinochloa crus-galli, 30 days
Method: (§1) Rice paddy soil was filled into a 1/10000 are pot followed by the addition of suitable amounts of water and chemical fertilizer, kneading, seeding with Echinochloa crus-galli, Monochoria vaginalis and Scirpus juncoides and maintaining in an irrigated state at a water depth of 3 cm.
(§2) Wettable powder of Target Compound (I) shown in Table 1 prepared in compliance with the preparation examples were diluted with a suitable amount of water, rice plants in the 2.0 leaf stage were transplanted during 3.5 leaf stage of Echinochloa crus-galli, and treated by dropping in chemical in the prescribed amount per are using a pipette.
(§3) After treating for 30 days in a glass greenhouse at an average atmospheric temperature of 30° C., the herbicidal efficacy thereof was investigated.
(§4) Evaluation of herbicidal efficacy was carried out by comparing growth inhibition rate (%) with an untreated group, while evaluation of phytotoxicity was carried out by comparing growth inhibition rate (%) with the state of a complete eradication group, and were evaluated at 11 levels indicated below.

Scirpus juncoides = conditions: irrigated paddy pot, 30 days
Method: as §1, §2, §3, §4

Monochoria vaginalis = conditions: irrigated paddy pot, 30 days
Method: as §1, §2, §3, §4

Structure (SMILES) | Echinochloa crus-galli herbicidal efficacy (growth inhibition level) (Echinochloa crus-galli; 1g a.i./10a) | Echinochloa crus-galli herbicidal efficacy (growth inhibition level) (Echinochloa crus-galli; 5g a.i./10a) | Scirpus juncoides herbicidal efficacy (growth inhibition level) (Scirpus juncoides; 1g a.i./10a) | Scirpus juncoides herbicidal efficacy (growth inhibition level) (Scirpus juncoides; 5g a.i./10a) | Monochoria vaginalis herbicidal efficacy (growth inhibition level) (Monochoria vaginalis; 1g a.i./10a) | Monochoria vaginalis herbicidal efficacy (growth inhibition level) (Monochoria vaginalis; 5g a.i./10a)
N#Cc1cnn(-c2nn3c(c2Cl)CCCC3)c1NCC(Cl)=CCl (mixture of isomers) [Compound 11] | 8 (8: 80% to less than 90%) | 9 (9: 90% to less than 100%) | 7 (7: 70% to less than 80%) | 8 (8: 80% to less than 90%) | 8 (8: 80% to less than 90%) | 9 (9: 90% to less than 100%)
N#Cc1cnn(-c2nn3c(c2Cl)CCCC3)c1N(CC(Cl)=CCl)C(=O)C(F)(F)F (mixture of isomers) [Compound 23] | 8 (8: 80% to less than 90%) | 9 (9: 90% to less than 100%) | 7 (7: 70% to less than 80%) | 8 (8: 80% to less than 90%) | 8 (8: 80% to less than 90%) | 9 (9: 90% to less than 100%)
CC=CCCN(C(=O)C(F)(F)F)c1c(C#N)cnn1-c1nn2c(c1Cl)CCCC2 (mixture of isomers) [Compound 26] | 9 (9: 90% to less than 100%) | 9 (9: 90% to less than 100%) | 7 (7: 70% to less than 80%) | 8 (8: 80% to less than 90%) | 8 (8: 80% to less than 90%) | 9 (9: 90% to less than 100%)
CC=CCNc1c([N+](=O)[O-])cnn1-c1nn2c(c1Cl)CCCC2 (mixture of isomers) [Compound 34] | 9 (9: 90% to less than 100%) | 9 (9: 90% to less than 100%) | 8 (8: 80% to less than 90%) | 8 (8: 80% to less than 90%) | 9 (9: 90% to less than 100%) | 9 (9: 90% to less than 100%)
CC=CCN(C(=O)C(F)(F)F)c1c([N+](=O)[O-])cnn1-c1nn2c(c1Cl)CCCC2 (mixture of isomers) [Compound 40] | 8 (8: 80% to less than 90%) | 9 (9: 90% to less than 100%) | 7 (7: 70% to less than 80%) | 8 (8: 80% to less than 90%) | 8 (8: 80% to less than 90%) | 8 (8: 80% to less than 90%)
N#Cc1cnn(-c2nn3c(c2Br)CCCC3)c1NCC(Cl)=CCl (mixture of isomers) [Compound 46] | 7 (7: 70% to less than 80%) | 8 (8: 80% to less than 90%) | 7 (7: 70% to less than 80%) | 8 (8: 80% to less than 90%) | 7 (7: 70% to less than 80%) | 8 (8: 80% to less than 90%)
CC=CCNc1c(C#N)cnn1-c1nn2c(c1Br)CCCC2 (mixture of isomers) [Compound 47] | 9 (9: 90% to less than 100%) | 10 (10: 100%) | 7 (7: 70% to less than 80%) | 8 (8: 80% to less than 90%) | 8 (8: 80% to less than 90%) | 9 (9: 90% to less than 100%)
CC=CCNc1c([N+](=O)[O-])cnn1-c1nn2c(c1Br)CCCC2 (mixture of isomers) [Compound 57] | 9 (9: 90% to less than 100%) | 10 (10: 100%) | 7 (7: 70% to less than 80%) | 8 (8: 80% to less than 90%) | 8 (8: 80% to less than 90%) | 9 (9: 90% to less than 100%)
C=CCCNc1c(C#N)cnn1-c1nn2c(c1Cl)CCCC2 [Compound 5] | 9 (9: 90% to less than 100%) | 10 (10: 100%) | 7 (7: 70% to less than 80%) | 8 (8: 80% to less than 90%) | 9 (9: 90% to less than 100%) | 9 (9: 90% to less than 100%)
N#Cc1cnn(-c2nn3c(c2Cl)CCCC3)c1NCCC(F)=C(F)F [Compound 6] | 9 (9: 90% to less than 100%) | 9 (9: 90% to less than 100%) | 8 (8: 80% to less than 90%) | 8 (8: 80% to less than 90%) | 7 (7: 70% to less than 80%) | 8 (8: 80% to less than 90%)
N#Cc1cnn(-c2nn3c(c2Cl)CCCC3)c1NC/C=C\Cl [Compound 7] | 9 (9: 90% to less than 100%) | 9 (9: 90% to less than 100%) | 7 (7: 70% to less than 80%) | 8 (8: 80% to less than 90%) | 9 (9: 90% to less than 100%) | 9 (9: 90% to less than 100%)
CC(C)=CCNc1c(C#N)cnn1-c1nn2c(c1Cl)CCCC2 [Compound 13] | 9 (9: 90% to less than 100%) | 10 (10: 100%) | 8 (8: 80% to less than 90%) | 8 (8: 80% to less than 90%) | 8 (8: 80% to less than 90%) | 9 (9: 90% to less than 100%)
C=CCN(C(=O)C(F)(F)F)c1c(C#N)cnn1-c1nn2c(c1Cl)CCCC2 [Compound 17] | 9 (9: 90% to less than 100%) | 10 (10: 100%) | 9 (9: 90% to less than 100%) | 9 (9: 90% to less than 100%) | 8 (8: 80% to less than 90%) | 8 (8: 80% to less than 90%)
C=CCCN(C(=O)C(F)(F)F)c1c(C#N)cnn1-c1nn2c(c1Cl)CCCC2 [Compound 18] | 9 (9: 90% to less than 100%) | 9 (9: 90% to less than 100%) | 7 (7: 70% to less than 80%) | 8 (8: 80% to less than 90%) | 8 (8: 80% to less than 90%) | 9 (9: 90% to less than 100%)
C=C(C)CN(C(=O)C(F)(F)F)c1c(C#N)cnn1-c1nn2c(c1Cl)CCCC2 [Compound 19] | 9 (9: 90% to less than 100%) | 10 (10: 100%) | 7 (7: 70% to less than 80%) | 8 (8: 80% to less than 90%) | 9 (9: 90% to less than 100%) | 9 (9: 90% to less than 100%)
